The source of these data is PMC8414802, “Hair Cell Generation in Cochlear Culture Models Mediated by Novel γ-Secretase Inhibitors” (Frontiers in Cell and Developmental Biology, 2021).

Assay [1] concerns Atoh1, Pou4f3, Myo7a expression in otic spheres. Description: Otic sphere assay, hair cell gene expression. Type of assay: cell-based, mouse. As to the method:
The generation of otic spheres followed previously described protocols ([Oshima et al., 2009]) with modifications during differentiation phase to test GSIs. Briefly, OCs were dissociated and single cells were deposited in ultralow-cluster plates (Corning) and expanded in “full otic medium” consisting of DMEM/F12, supplemented with N2, B27 (Thermo Fisher), EGF (20 ng/ml; Chemicon), bFGF (10 ng/ml; Chemicon), IGF-1 (50 ng/ml; Chemicon), and heparan sulfate (50 ng/ml; Sigma-Aldrich). After culturing for 3–4 days at 37°C, spheres were collected, plated in cell culture-treated 96 well-plate and cultured in DMEM/F12, supplemented with N2, B27 with/without GSIs for 7 days after which they were lysed for RNA extraction.
Cells or tissue were lysed using RLT Lysis Buffer (Qiagen) and high purity RNA was prepared on the MagNA Pure instrument using MagNA Pure 96 Cellular RNA LV Kit (Roche). Reagents from Thermo Fisher were used for cDNA synthesis by reverse transcription using random hexamers. Resulting cDNA was RNAse H treated and amplified by TaqMan GEX mastermix and PCR primers and probes for human ATOH1 (Hs00944192_s1) and TBP (Hs00427620_m1), mouse Tbp (Mm00446971_m1), Atoh1 (Mm00476035_s1), Hes5 (Mm00439311_g1), Pouf4s (Mm04213795_s1), and Myo7a (Mm01274015_m1) on the Applied Biosystems QuantStudio 7 Flex Real-Time PCR System. Normalized to Tbp, relative gene expression fold-change was quantified and compared between experimental and control conditions by ΔΔCt calculation.
CPD3 and CPD8 were further compared for their potency to induce hair cell gene expression in otic sphere assays ([Oshima et al., 2009]). Cells were first expanded in presence of growth factors, and in a second step differentiated by growth factor removal and GSI treatment. […] This indicated a modest advantage of CPD3 in eliciting expression of the early hair cell marker Atoh1, but similar potency on expression of some later markers of HC differentiation, Pou4f3 and Myo7a (Figure 2A). From the results of two screening assays, CPD3 was selected for additional characterization studies based on its lower IC50 to induce Atoh1/ATOH1 expression in the otic spheres and LS174T cells, respectively.

Assay [2] relates to hair cells in rat OC explants exposed to S. pneumoniae. As to the kind of experiment: OC explants after S. pneumoniae-induced damage. It is filed as cell-based. As to the method: To induce ototoxic damage, medium was removed from the OC cultures on the day after dissection and either 200 μM sisomicin (Sigma) in full otic medium, or 10^8 cfu/ml Streptococcus pneumoniae (described below) in ampicillin-free and FBS-free otic medium were added under the transwell membrane (lower compartment) of the cultivation system. After 2 h of exposure to the ototoxic insult, OCs were carefully washed 3 times and culture was continued for 4 days in fresh full otic medium.
A clinical isolate of S. pneumoniae, serotype 3 was used as previously described ([Leib et al., 2000]; [Perny et al., 2017]). […] Bacteria were diluted to the desired optical density (OD570 nm) and the final inoculum concentration was determined by plating serial dilutions on Columbia sheep blood agar. […]
Dividing cells were labeled with, 5-ethyl-2′-deoxyuridine (EdU) and detected with Click-it Plus kit (Life Technologies). […]
Image processing was performed with the open-source image processing software FIJI, version 2.0 ([Schindelin et al., 2012]). Hair cells were quantified by counting Pou4f3 or Myo7a positive cells of the organ of Corti at three random microscopic fields for each cochlear region (base, middle, and apex) covering in total at least 1,200 μm. The number of hair cells (IHCs and OHCs) is expressed as unit per 100 μm. […]

Take `COc1ccc2c(c1)N1CCC(C)(C)C1=CC(=O)[C@H]2NC(=O)[C@H](C)NC(=O)CCC(F)(F)F` [CPD3]: the IC50 in assay [1] (Mus musculus, 168 h, 7 days differentiation with GSI, read-out: IC50 for Atoh1 upregulation) came to 6.7 nM. For the same compound, the “Induction of Atoh1, Pou4f3 and Myo7a expression” value in assay [1] (dose-responsive, p < 0.05) is recorded as “significantly induced”. In addition, the “OHCs after S. pneumoniae damage compared to DMSO” value in assay [2] (4 days treatment after 2 h exposure) is on record as “more OHCs in all turns of the organ of Corti”. Besides, in assay [2] (apical domain only, not statistically significant), the “Pou4f3/Sox2 double-positive cells after S. pneumoniae damage” value is “increased occurrence”.

The term IC50 denotes the concentration at which inhibition is half-maximal.
